Assay results as given in US8389011B2, “Pharmaceutical compositions of cholesteryl ester transfer protein inhibitors” (Bend Research, Inc., priority 2000, dated 2013).

Assay: In vitro dissolution test, microcentrifuge method, in phosphate buffered saline (PBS) pH 6.5
Assay type: physicochemical
Details: for AUC / Drug 2 Concentration: Table 5, PBS pH 6.5, 37° C.; for AUC: dose about 1000 μg/mL; for Drug 2 Concentration: Drug 2 dose about 1000 μg/mL
Method: The compositions comprising the CETP inhibitor and concentration-enhancing polymer provide enhanced concentration of the dissolved CETP inhibitor in in vitro dissolution tests. […] An appropriate PBS solution is an aqueous solution comprising 20 mM sodium phosphate (Na2HPO4), 47 mM potassium phosphate (KH2PO4), 87 mM NaCl, and 0.2 mM KCl, adjusted to pH 6.5 with NaOH. An appropriate MFD solution is the same PBS solution wherein additionally is present 7.3 mM sodium taurocholic acid and 1.4 mM of 1-palmitoyl-2-oleyl-sn-glycero-3-phosphocholine. In particular, a composition of the present invention can be dissolution-tested by adding it to MFD or PBS solution and agitating to promote dissolution.
Indeed, for some extremely insoluble CETP inhibitors, in order to identify the MDC achieved it may be necessary to use an amount of test composition such that if all of the CETP inhibitor dissolved, the CETP inhibitor concentration would be 10,000-fold or even more, that of the equilibrium concentration of the CETP inhibitor.
The MDC is taken to be the maximum value of dissolved CETP inhibitor measured over the duration of the test.
Filtration can be conducted using a 13 mm, 0.45 μm polyvinylidine difluoride syringe filter sold by Scientific Resources under the trademark TITAN®. Centrifugation is typically carried out in a polypropylene microcentrifuge tube by centrifuging at 13,000 G for 60 seconds. Other similar filtration or centrifugation methods can be employed and useful results obtained.
The spray-dried dispersions of Examples 6 and 7 were evaluated in an in vitro dissolution test using a microcentrifuge method. In this test, the spray-dried dispersion was added to a microcentrifuge tube for a Drug 2 dose of about 1000 μg/mL (7.2 mg for Example 6, 18 mg for Example 7). The tube was placed in a 37° C. sonicating bath, and 1.8 mL phosphate buffered saline (PBS) at pH 6.5 and 290 mOsm/kg was added. The samples were quickly mixed using a vortex mixer for about 60 seconds. The samples were centrifuged at 13,000 G at 37° C. for 1 minute. The resulting supernatant solution was then sampled and diluted 1:6 (by volume) with methanol and then analyzed by high-performance liquid chromatography (HPLC). The contents of the tubes were mixed on the vortex mixer and allowed to stand undisturbed at 37° C. until the next sample was taken. Samples were collected at 4, 10, 20, 40, 90, and 1200 minutes.
For Control 2, an in vitro dissolution test was performed using the procedures described above except that 1.8 mg of crystalline Drug 2 was used.
In this method, 7.2 mg of each spray-dried dispersion was added to a 2-mL microcentrifuge tube. The tube was placed in a 37° C. sonicating bath, and 1.8 mL of a phosphate-buffered saline (PBS) solution at pH 6.5 and 290 mOsm/kg was added, resulting in a TCmax of 400 μg/mL. The samples were quickly mixed using a combination of vortex mixer and sonication for about 90 seconds. The samples were centrifuged at 13,000 G at 37° C. for 1 minute. The resulting supernatant solution was then sampled and diluted 1:6 (by volume) with methanol and then analyzed by HPLC. The tubes were then mixed on the vortex mixer and allowed to stand undisturbed at 37° C. until the next sample. Samples were collected at 4, 10, 20, 40, 90 and 1200 minutes.
For Control 5, an in vitro dissolution test was performed using the procedure described above, except that 0.72 mg of non-crystalline Drug 3 was placed in a microcentrifuge tube and mixed with 1.8 mL of PBS.
In this method, 15 mg of each SDD was added to a 2-mL microcentrifuge tube. The tube was placed in a 37° C. sonicating bath, and 1.5 mL of a phosphate-buffered saline (PBS) solution at pH 6.5 and 290 mOsm/kg) was added, resulting in a TCmax of 1000 μg/mL. The samples were quickly mixed using a combination of vortex mixer and sonication for about 90 seconds.

[1] = Table 25: Drug 2, PBS, melt-congeal poloxamer dispersions
[2] = Table 28: Drug 2, PBS, spray-dried poloxamer dispersions
[3] = Table 37: Drug 2, PBS, CMEC dispersions

actual Cmax,90 for Drug 2 in Control 2 (believed) (PBS, inferred from the accurately measured solubility of crystalline Drug 2): about 0.01 μg/ml | AUC (Drug 2, to 0 min): 0 min-μg/mL | AUC (Drug 2, to 4 min): <2 min-μg/mL | AUC (Drug 2, to 10 min): <8 min-μg/mL | AUC (Drug 2, to 20 min): <18 min-μg/mL | AUC (Drug 2, to 40 min): <38 min-μg/mL | AUC (Drug 2, to 90 min): <88 min-μg/mL | AUC (Drug 2, to 1200 min): <1,200 min-μg/mL | Drug 2 Concentration (0 min): 0 µg/mL | Drug 2 Concentration (4 min): <1 µg/mL | Drug 2 Concentration (10 min): <1 µg/mL | Drug 2 Concentration (20 min): <1 µg/mL | Drug 2 Concentration (40 min): <1 µg/mL | Drug 2 Concentration (90 min): <1 µg/mL | Drug 2 Concentration (1200 min): <1 µg/mL | AUC90 (Table 6, area under the aqueous concentration versus time curve after 90 minutes, Drug 2, PBS, TCmax about 1000 μg/mL): <88 min-μg/mL | C1200 (Table 6, concentration of Drug 2 at 1200 minutes, PBS, TCmax about 1000 μg/mL): <1 µg/mL | Cmax, 90 (Table 6, maximum concentration of Drug 2 in solution during the first 90 minutes, PBS, TCmax about 1000 μg/mL): <1 µg/mL | AUC90 [1]: < 1.47 µg·h/mL | Cmax, 90 [1]: <1 µg/mL | AUC90 [2]: <88 min-μg/mL | Cmax, 90 [2]: <1 µg/mL | AUC90 [3]: <88 min-μg/mL | Cmax, 90 [3]: <1 µg/mL | AUC90 (Table 41: Drug 2, PBS): <88 min-μg/mL | Cmax, 90 (Table 41: Drug 2, PBS): <1 µg/mL | AUC90 (Table 44: Drug 2, PBS): <88 min-μg/mL | Cmax, 90 (Table 44: Drug 2, PBS): <1 µg/mL
SMILES: CCOC(=O)N1c2ccc(C(F)(F)F)cc2[C@@H](N(Cc2cc(C(F)(F)F)cc(C(F)(F)F)c2)C(=O)OC)C[C@H]1CC [Control 2, [2R,4S]4-[(3,5-bis-trifluoromethyl-benzyl)-methoxycarbonyl-amino]-2-ethyl-6-trifluoromethyl-3,4-dihydro-2H-quinoline-1-carboxylic acid ethyl ester]
